Results published in patent publication US20110070190A1 (Roche Palo Alto LLC, priority 2009, published 2011).

biological target: T1, HCV polymerase (NS5B570n-Con1) (Hepatitis C virus genotype 1b, UniProt Q9WMX2); test: HCV NS5B RNA polymerase activity (incorporation of radiolabeled nucleotide into acid insoluble RNA); format: biochemical, HCV Con1 strain
T1 construct: a 21 amino acid C-terminal deletion of full-length HCV polymerase; made in house; host or cells: E. coli BL21(DE3) pLysS, plasmid pET17b
Procedure: The enzymatic activity of HCV polymerase (NS5B570n-Con1) was measured as the incorporation of radiolabeled nucleotide monophosphates into acid insoluble RNA products. Unincorporated radiolabeled substrate was removed by filtration and scintillant was added to the washed and dried filter plate containing radiolabeled RNA product. The amount of RNA product generated by NS5B570n-Con1 at the end of the reaction was directly proportional to the amount of light emitted by the scintillant.
The HCV polymerase used in the enzymatic activity assay is a 21 amino acid C-terminal deletion of full-length HCV polymerase derived from HCV Con1 strain, genotype 1b (GenBank accession number AJ242654) (NS5B570n-Con1). The NS5B570n-Con1 was sub-cloned downstream to the T7 promoter of the plasmid expression construct pET17b and transformed into E. coli strain BL21(DE3) pLysS for protein expression. A single colony was used to start an innoculum for a 10 L culture in LB media supplemented with 100 μg/mL ampicillin at 37° C. Protein expression was induced by the addition of 0.25 mM isopropyl-β-D-thiogalactopyranoside (IPTG) when the optical density of the culture at […] was 0.8. Induction of protein expression was carried out at 30° C. for 16 h after which the cells were harvested by centrifugation. NS5B570n-Con1 was purified to homogeneity using a three-column purification protocol including subsequent column chromatography on Ni-NTA, SP-Sepharose HP and Superdex 75 resins.
Enzymatic reactions in the presence of cIRES RNA template (see paragraph [00213]) contained 20 nM cIRES RNA, 20 nM NS5B570n-Con1 enzyme, 0.5 μCi of tritiated UTP (Perkin Elmer catalog no. TRK-412; specific activity: 30 to 60 Ci/mmol;), 1 μM each ATP, CTP, and GTP, 40 mM Tris-HCl pH 8.0, 40 mM NaCl, 4 mM DTT (dithiothreitol), 4 mM MgCl2, 5 μl of compound serial diluted in DMSO, and nuclease-free water to a final reaction volume of 50 μl. Enzymatic reactions in the presence of poly A RNA template (see paragraph [00213]) contained 20 nM Poly A:oligo(rU)16 premixed (see section 0004), 20 nM NS5B570n-Con1 enzyme, 1 μCi of tritiated UTP (Perkin Elmer catalog no. TRK-412; specific activity: 30 to 60 Ci/mmol), 40 mM Tris-HCl pH 8.0, 40 mM NaCl, 4 mM DTT (dithiothreitol), 4 mM MgCl2, 5 μl of compound serial diluted in DMSO, and nuclease-free water to a final reaction volume of 50 μl. Reaction mixtures were assembled in 96-well filter plates (cat #MADVN0B, Millipore Co.) and incubated for 2 h at 30° C. Reactions were stopped by addition of 10% final (v/v) trichloroacetic acid and incubated for 40 min at 4° C. Reactions were filtered, washed with 8 reaction volumes of 10% (v/v) trichloroacetic acetic acid, 4 reaction volumes of 70% (v/v) ethanol, air dried, and 25 μl of scintillant (Microscint 20, Perkin-Elmer) was added to each reaction well.
Two RNA templates were used to assay compounds described herein. The cIRES RNA template was 377 nucleotide long and consisted of a partial complementary sequence (36 nucleotides) of the core protein, followed by 341 nucleotide of the complementary sequence of the internal ribosome entry site. The poly A RNA template (GE Amersham catalog number 27-4110) was a homopolymeric RNA pre-annealed to a oligo(rU)16 primer at a molar ratio of 3-to-1 (primer-template).
The amount of light emitted from the scintillant was converted to counts per minute (CPM) on a Topcount® plate reader (Perkin-Elmer, Energy Range: Low, Efficiency Mode: Normal, Count Time: 1 min, Background Subtract: none, Cross talk reduction: Off).
Data was analyzed in Excel® (Microsoft®) and ActivityBase® (Idbs®). The reaction in the absence of enzyme was used to determine the background signal, which was subtracted from the enzymatic reactions. Positive control reactions were performed in the absence of compound, from which the background corrected activity was set as 100% polymerase activity. All data was expressed as a percentage of the positive control. […]

| Structure (SMILES) | IC50 |
| --- | --- |
| O=C(Nc1ccc(-c2cc3c(s2)c(=O)ncn3Cc2ccc(Cl)cc2)cc1Cl)c1ccccn1 [Compound I-1, Pyridine-2-carboxylic acid {2-chloro-4-[1-(4-chloro-benzyl)-4-oxo-1,4-dihydro-thieno[3,2-d]pyrimidin-6-yl]-phenyl}-amide] | 2 nM |
| Cc1ccc(C(=O)Nc2ccc(-c3cc4c(s3)c(=O)ncn4Cc3ccc(Cl)cc3)cc2)o1 [Compound I-3, 5-Methyl-furan-2-carboxylic acid {4-[1-(4-chloro-benzyl)-4-oxo-1,4-dihydro-thieno[3,2-d]pyrimidin-6-yl]-phenyl}-amide] | 9 nM |
| Cc1cc(N)n2nc(-c3ccc(-c4cc5c(s4)c(=O)ncn5C[C@H]4CC[C@@H](C)CC4)cc3Cl)cc2n1 [Compound I-4, 6-[4-(7-amino-5-methyl-pyrazolo[1,5-a]pyrimidin-2-yl)-3-chloro-phenyl]-1-(4-methyl-cyclohexylmethyl)-1H-thieno[3,2-d]pyrimidin-4-one] | 10 nM |
| O=c1ncn(Cc2ccc(Cl)cc2)c2cc(-c3ccc(OCc4ccc(F)cc4)cc3)sc12 [Compound I-5, 1-(4-chloro-benzyl)-6-[4-(4-fluoro-benzyloxy)-phenyl]-1H-thieno[3,2-d]pyrimidin-4-one] | 13 nM |
| O=C(Nc1ccc(-c2cc3c(s2)c(=O)ncn3Cc2ccc(Cl)cc2)cc1)c1cc(F)ccc1F [Compound I-7, N-{4-[1-(4-Chloro-benzyl)-4-oxo-1,4-dihydro-thieno[3,2-d]pyrimidin-6-yl]-phenyl}-2,5-difluoro-benzamide] | 21 nM |
| Nc1nccc(C(=O)Nc2ccc(-c3cc4c(s3)c(=O)ncn4Cc3ccc(Cl)cc3)cc2)n1 [Compound I-8, 2-Amino-pyrimidine-4-carboxylic acid {4-[1-(4-chloro-benzyl)-4-oxo-1,4-dihydro-thieno[3,2-d]pyrimidin-6-yl]-phenyl}-amide] | 26 nM |
| Nc1cc(C(=O)Nc2ccc(-c3cc4c(s3)c(=O)ncn4Cc3ccc(Cl)cc3)cc2)ccn1 [Compound I-9, 2-Amino-N-{4-[1-(4-chloro-benzyl)-4-oxo-1,4-dihydro-thieno[3,2-d]pyrimidin-6-yl]-phenyl}-isonicotinamide] | 29 nM |
| Nc1nccc(-c2ccc(-c3cc4c(s3)c(=O)ncn4Cc3ccc(Cl)cc3)cc2)n1 [Compound I-10, 6-[4-(2-Amino-pyrimidin-4-yl)-phenyl]-1-(4-chloro-benzyl)-1H-thieno[3,2-d]pyrimidin-4-one] | 29 nM |
| COc1ccc(COc2ccc(-c3cc4c(s3)c(=O)ncn4Cc3ccc(Cl)cc3)cc2)cc1 [Compound I-11, 1-(4-chloro-benzyl)-6-[4-(4-methoxy-benzyloxy)-phenyl]-1H-thieno[3,2-d]pyrimidin-4-one] | 32 nM |
| O=C(Nc1ccc(-c2cc3c(s2)c(=O)ncn3Cc2ccc(Cl)cc2)cc1)c1cnccn1 [Compound I-12, Pyrazine-2-carboxylic acid {4-[1-(4-chloro-benzyl)-4-oxo-1,4-dihydro-thieno[3,2-d]pyrimidin-6-yl]-phenyl}-amide] | 32 nM |
| Cc1ccc(Cn2cnc(=O)c3sc(-c4ccc(-c5ccccc5)cc4)cc32)cc1 [Compound I-13] | 45 nM |
| O=C(Nc1ccc(-c2cc3c(s2)c(=O)ncn3Cc2ccc(Cl)cc2)cc1F)c1ccccc1 [Compound I-14, N-{4-[1-(4-Chloro-benzyl)-4-oxo-1,4-dihydro-thieno[3,2-d]pyrimidin-6-yl]-2-fluoro-phenyl}-benzamide] | 69 nM |
| Cc1cc(C(=O)Nc2ccc(-c3cc4c(s3)c(=O)ncn4Cc3ccc(Cl)cc3)cc2)n[nH]1 [Compound I-15, 5-Methyl-1H-pyrazole-3-carboxylic acid {4-[1-(4-chloro-benzyl)-4-oxo-1,4-dihydro-thieno[3,2-d]pyrimidin-6-yl]-phenyl}-amide] | 70 nM |
| Cc1ncoc1C(=O)Nc1ccc(-c2cc3c(s2)c(=O)ncn3Cc2ccc(Cl)cc2)cc1 [Compound I-18, 4-Methyl-oxazole-5-carboxylic acid {4-[1-(4-chloro-benzyl)-4-oxo-1,4-dihydro-thieno[3,2-d]pyrimidin-6-yl]-phenyl}-amide] | 77 nM |
| Cc1ccc(Cn2cnc(=O)c3sc(-c4ccc(-c5cc6ncccc6o5)cc4)cc32)cc1 [Compound I-19, 6-(4-Furo[3,2-b]pyridin-2-yl-phenyl)-1-(4-methyl-benzyl)-1H-thieno[3,2-d]pyrimidin-4-one] | 82 nM |
| O=c1ncn(Cc2ccc(Cl)cc2)c2cc(-c3ccc(SCc4ccccc4)cc3)sc12 [Compound I-20, 6-(4-Benzylsulfanyl-phenyl)-1-(4-chloro-benzyl)-1H-thieno[3,2-d]pyrimidin-4-one] | 104 nM |
| O=c1ncn(Cc2ccc(Cl)cc2)c2cc(-c3ccc(NCc4ccccn4)cc3)sc12 [Compound I-23] | 139 nM |
| O=c1ncn(Cc2ccc(Cl)cc2)c2cc(-c3ccc(Oc4ccccc4)cc3)sc12 [Compound I-24, 1-(4-Chloro-benzyl)-6-(4-phenoxy-phenyl)-1H-thieno[3,2-d]pyrimidin-4-one] | 150 nM |
| CCCCOc1ccc(-c2cc3c(s2)c(=O)ncn3Cc2ccc(Cl)cc2)cc1Cl [Compound I-25, 6-(4-Butoxy-3-chloro-phenyl)-1-(4-chloro-benzyl)-1H-thieno[3,2-d]pyrimidin-4-one] | 155 nM |
| COc1cccc(C(=O)Nc2ccc(-c3cc4c(s3)c(=O)ncn4Cc3ccc(Cl)cc3)cc2Cl)c1 [Compound I-26] | 162 nM |
| O=C(CCCO)Nc1ccc(-c2cc3c(s2)c(=O)ncn3Cc2ccc(Cl)cc2)cc1Cl [Compound I-30, N-{2-Chloro-4-[1-(4-chloro-benzyl)-4-oxo-1,4-dihydro-thieno[3,2-d]pyrimidin-6-yl]-phenyl}-4-hydroxy-butyramide] | 279 nM |
| O=C(Nc1ccc(-c2cc3c(s2)c(=O)ncn3Cc2ccc(Cl)cc2)cc1)c1ccno1 [Compound I-32, Isoxazole-5-carboxylic acid {4-[1-(4-chloro-benzyl)-4-oxo-1,4-dihydro-thieno[3,2-d]pyrimidin-6-yl]-phenyl}-amide] | 308 nM |
| Cc1nnc(-c2ccc(-c3cc4c(s3)c(=O)ncn4Cc3ccc(Cl)cc3)cc2)o1 [Compound I-33, 1-(4-Chloro-benzyl)-6-[4-(5-methyl-[1,3,4]oxadiazol-2-yl)-phenyl]-1H-thieno[3,2d]pyrimidin-4-one] | 390 nM |
| CC(CCO)C(=O)Nc1ccc(-c2cc3c(s2)c(=O)ncn3Cc2ccc(Cl)cc2)cc1Cl (stereo not drawn) [Compound I-35] | 517 nM |
| Cc1ccc(Cn2cnc(=O)c3sc(-c4ccc(C(=O)O)cc4)cc32)cc1 [Compound I-36] | 535 nM |
| CC(=O)Nc1ccc(-c2cc3c(s2)c(=O)ncn3Cc2ccc(Cl)cc2)cc1 [Compound I-37, N-{4-[1-(4-Chloro-benzyl)-4-oxo-1,4-dihydro-thieno[3,2-d]pyrimidin-6-yl]-phenyl}-acetamide] | 586 nM |
| O=C(Nc1ccc(-c2cc3c(s2)c(=O)ncn3Cc2ccc(Cl)cc2)cc1)c1ccccn1 [Compound I-39, Pyridine-2-carboxylic acid {4-[1-(4-chloro-benzyl)-4-oxo-1,4-dihydro-thieno[3,2-d]pyrimidin-6-yl]-phenyl}-amide] | 5 nM |
